According to patent US9862711B2, “Pyrazine derivatives as phosphatidylinositol 3-kinase inhibitors” (NOVARTIS AG, priority 2014, dated 2018):

Assays:
Format in all cases: cell-based
[1] = tested on: IL-8-induced neutrophil shape change in human whole blood; assay: Whole blood neutrophil shape change assay (Assay L); details: 2 nM IL-8, neutrophil shape change by flow cytometry, read-out: Assay L WBSC IC50
Protocol: Whole Blood Neutrophil Shape Change Assay (L)
A flow cytometry based method used to measure the inhibition of IL-8 (interleukin-8)-induced neutrophil shape change in human whole blood.
IL-8 was made up to 2 μM stocks in 0.1% bovine serum albumin/PBS and stored at −80° C. On the day IL-8 was diluted in PBS (phosphate buffered saline) 10 minutes before use. IL-8 was used at final concentration of 2 nM and a concentration range from […] to 200 nM for the donor dose response curve.
Assay fixative solution was prepared fresh each day from 10× concentrated CellFIX™ solution diluted 1:10 in sterile distilled water and then 1:4 with PBS. Assay fixative solution was kept on ice prior to use.
A 10× lysis buffer was prepared in advance by dissolving 20.75 g […] and 2.5 g KHCO3 in 250 ml sterile H2O. This 10× lysis buffer was filtered under sterile conditions and stored for up to two weeks at 4° C. On the day a 1× lysis solution was prepared with sterile distilled H2O and kept on ice prior to use.
The test compounds were prepared as 10 mM stock solutions in 100% DMSO and were stored at 4° C. Once in use for an assay 10 mM stock compounds were thawed and stored at RT protected from light. Compound dilutions were prepared fresh on the day. The first series of dilutions in 100% DMSO were done first thing in the morning. Only once blood had been collected and arrived in laboratory was the next set of dilutions into PBS carried out (1:10 PBS, 10% DMSO). This limited the exposure of diluted compound to plastic and made sure the exposure timing was consistent between assays. Compounds were added to the deep 96 well plates at 10× the final desired concentration (with addition of blood final [DMSO]=1%).
Table 3 illustrates the compound dilution series used in human whole blood neutrophil shape change assay.
On the day of running the assay, assay fixative buffer and 1× lysis solutions were prepared and stored on ice. Compound dilutions in 100% DMSO were prepared as described previously. Human whole blood was collected in K2 EDTA Vacutainers. Once blood was in the laboratory, compound dilutions into PBS were carried out as described previously and depicted in Table 1. 10 μl of 10× final compound concentration was added to appropriate wells of a deep 96-well plate except controls where 10 μl of 10% DMSO was added in place of compound, as outlined in the dilution series in Table 1. The outer wells of the deep well assay plate were filled with 1200 μl of sterile distilled H2O in an effort to limit edge effects (rows A1-H1, A1-A12, A12-H12). An IL-8 dose response was determined for each blood donor examined, to monitor the donor response to IL-8. At this step in assay preparation for the IL-8 dose response samples 10 μl of PBS was added to designated wells. In addition the assay window without DMSO was also assessed each day. For such samples at this step in assay preparation 10 μl of PBS was added in the place of 10% DMSO.
80 μl of whole blood was added to compound/10% DMSO/PBS and mixed once gently upon addition. Lids were placed on the 96 well plates and samples were incubated for 15 minutes at 37° C. in a water-bath.
Following the compound pre-incubation 10× final IL-8 was added to appropriate wells (10 μl of 20 nM working stock IL-8, final IL-8 concentration in blood=2 nM) and 10 μl of PBS was added to the un-stimulated controls. 10× final dose response range IL-8 was also added to designated wells (final concentration range on assay plate was 200 nM to 0.0005 nM, 1:5 serial dilution in PBS). The IL-8 and PBS were added to appropriate wells across all assay plates in the same sequence as the blood to compound addition. Once added to all assay plates, samples were mixed quickly once to ensure even distribution of IL-8. Samples were incubated for 5 minutes at 37° C. in a water-bath. Following the incubation sample plates were transferred to ice where 250 μl of chilled Assay Fixative Buffer was added promptly to all wells. […]

PI 3-kinase alpha = PI 3-kinase alpha (Homo sapiens (Human), UniProt P42336); assay: Cellular p-Akt (S473) SureFire assay, Rat-1_PI3Kalpha cells (Assay H); details: p-AKT (Ser473) in Rat-1 cells expressing myr-HA-hp110 alpha, 1 h compound; read-out: Assay H PI3Kα IC50
Sequence of PI 3-kinase alpha (P42336 whole entry): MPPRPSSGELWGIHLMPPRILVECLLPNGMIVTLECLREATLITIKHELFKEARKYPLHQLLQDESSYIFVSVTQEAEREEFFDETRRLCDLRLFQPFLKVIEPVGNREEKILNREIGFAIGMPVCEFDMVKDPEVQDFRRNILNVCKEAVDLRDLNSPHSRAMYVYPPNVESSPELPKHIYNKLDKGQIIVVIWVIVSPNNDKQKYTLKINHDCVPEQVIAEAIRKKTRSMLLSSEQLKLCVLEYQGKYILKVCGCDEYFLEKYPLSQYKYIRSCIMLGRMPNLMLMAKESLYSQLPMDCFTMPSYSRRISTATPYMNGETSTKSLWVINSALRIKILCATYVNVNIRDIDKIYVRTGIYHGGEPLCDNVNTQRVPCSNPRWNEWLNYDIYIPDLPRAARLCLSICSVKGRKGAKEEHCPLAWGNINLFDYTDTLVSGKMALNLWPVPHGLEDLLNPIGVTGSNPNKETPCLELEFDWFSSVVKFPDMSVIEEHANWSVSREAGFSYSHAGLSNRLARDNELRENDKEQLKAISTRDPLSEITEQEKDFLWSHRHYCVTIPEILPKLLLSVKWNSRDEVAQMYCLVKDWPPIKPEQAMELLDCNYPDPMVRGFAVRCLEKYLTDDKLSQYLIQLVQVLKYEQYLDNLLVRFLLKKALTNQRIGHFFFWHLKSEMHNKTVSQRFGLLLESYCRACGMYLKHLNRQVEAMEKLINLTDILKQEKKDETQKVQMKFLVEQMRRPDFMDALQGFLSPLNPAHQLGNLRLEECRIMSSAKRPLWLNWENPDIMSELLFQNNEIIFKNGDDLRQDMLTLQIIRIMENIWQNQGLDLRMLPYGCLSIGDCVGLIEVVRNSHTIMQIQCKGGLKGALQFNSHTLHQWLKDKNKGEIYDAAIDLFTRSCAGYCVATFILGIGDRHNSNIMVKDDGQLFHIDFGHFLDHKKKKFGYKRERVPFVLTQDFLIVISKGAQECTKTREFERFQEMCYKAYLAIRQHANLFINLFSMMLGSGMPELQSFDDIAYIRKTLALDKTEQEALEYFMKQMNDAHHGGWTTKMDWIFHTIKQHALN
Sequence of PI 3-kinase alpha (Q63787 whole entry partner): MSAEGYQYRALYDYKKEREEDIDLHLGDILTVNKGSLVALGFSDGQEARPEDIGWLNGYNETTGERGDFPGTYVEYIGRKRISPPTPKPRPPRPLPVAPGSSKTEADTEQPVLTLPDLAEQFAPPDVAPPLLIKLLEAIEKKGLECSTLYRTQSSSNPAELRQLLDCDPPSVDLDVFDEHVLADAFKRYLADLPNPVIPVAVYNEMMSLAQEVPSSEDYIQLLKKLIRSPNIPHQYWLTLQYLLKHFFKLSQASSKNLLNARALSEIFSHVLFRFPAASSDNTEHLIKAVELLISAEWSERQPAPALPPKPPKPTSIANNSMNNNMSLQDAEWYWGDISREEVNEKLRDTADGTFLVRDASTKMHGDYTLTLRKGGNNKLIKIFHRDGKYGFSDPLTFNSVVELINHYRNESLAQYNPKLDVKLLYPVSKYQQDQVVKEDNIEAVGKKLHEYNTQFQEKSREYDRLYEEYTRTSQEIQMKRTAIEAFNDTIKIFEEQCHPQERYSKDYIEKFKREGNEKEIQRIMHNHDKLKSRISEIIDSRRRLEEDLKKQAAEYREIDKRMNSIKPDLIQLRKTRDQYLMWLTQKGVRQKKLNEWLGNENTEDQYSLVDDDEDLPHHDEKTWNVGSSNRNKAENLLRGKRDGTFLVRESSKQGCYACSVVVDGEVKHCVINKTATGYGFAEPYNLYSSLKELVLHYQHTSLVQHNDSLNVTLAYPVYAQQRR
From the text: (§1) Cellular Assays for PI 3-Kinase Alpha (H), Beta (I) and Delta (J)
(§2) AlphaScreen (Amplified Luminescent Proximity Homogeneous Assay, ALPHA, Perkin Elmer) is a non-radioactive bead-based proximity assay technology to study biomolecular interactions in a homogenous microtiter plate format. The brand name SureFire denotes AlphaScreen assays that are adapted to quantify the phosphorylation of endogenous cellular proteins in cell lysates, by using matched antibody pairs, which consist of an anti-phospho-kinase and an anti-kinase antibody. The assay allows characterization of kinase signaling in cells as well as measurement of kinase inhibitor effects.
(§3) Rat-1 cell lines stably overexpressing activated PI 3-kinase class I isoforms Rat-1 pBABEpuro Myr-HA-hp110 delta clone 5 (Rat-1_PI3Kdelta) and Rat-1 pBABEpuro Myr-HA-hp110 alpha clone 6 (Rat-1_PI3Kalpha) and Rat-1 pBABEpuro Myr-HA-hp110 beta (Rat-1_PI3beta) were cultivated in complete growth medium (DMEM high glucose, 10% (v/v) fetal bovine serum, 1% (v/v) MEM NEAA, 10 mM HEPES, 2 mM L-glutamine, puromycin (10 μg/mL for Rat-1_PI3Kdelta and Rat-1_PI3Kalpha, 4 ug/mL for Rat-1_PI3beta), 1% (v/v) Pen/Strep) to 90% confluency at 37° C./5% CO2/90% humidity in a humidified CO2 incubator and were split twice a week. The following materials were used for p-AKT(5473) detection in Rat-1 cell lysates: Dulbecco's modified Eagle's medium (DMEM) high glucose (Gibco Invitrogen, Basel, Switzerland, Cat. No. 41965), heat inactivated fetal bovine serum, qualified (HI FBS; Gibco Invitrogen, Basel, Switzerland, Lot. No. 16140), MEM non essential amino acids (NEAA; Gibco Invitrogen, Basel, Switzerland, Cat. No. 11140), HEPES (Gibco Invitrogen, Basel, Switzerland, Cat. No. 15630), penicillin/streptomycin (Pen/Strep, 100×; Gibco Invitrogen, Basel, Switzerland, Cat. No. 15140-122), L-glutamine (Gibco Invitrogen, Basel, Switzerland, Cat. No. 25030), puromycin (Sigma Aldrich, Buchs, Switzerland, Cat. No. P9620), DMSO (MERCK, Dietikon, Switzerland, Cat. No. 8.02912.2500), H2O, MilliQ-H2O unless otherwise stated (MILLIPORE QGARDOOR1, Millipore, Zug, Switzerland), bovine serum albumine (BSA; Sigma Aldrich, Buchs, Switzerland Cat. No. A8412), SureFire p-Akt 1/2 (Ser473) Assay Kit (Perkin Elmer, Schwerzenbach, Switzerland, Cat. No. TGRAS50K).
(§4) The p-Akt (S473) SureFire assay measures the phosphorylation of endogenous cellular Akt 1/2 at Ser473 in cell lysates. Using Rat-1 cells stably expressing myr-HA-tagged versions of the human PI3Kdelta, PI3Kalpha, or PI3Kbeta p110 catalytic subunit isoforms, the assay was developed as a two-plate protocol in a 384-well format.
(§5) For compound testing, the cells were seeded at a density of 4000 (Rat-1_PI3Kdelta), 7500 (Rat-1_PI3Kalpha), or 6200 (Rat-1_PI3Kbeta) cells in 20 μl complete growth medium into cell culture treated 384-well plates and were grown at 37° C./5% CO2/90% humidity for 24 h. Shortly before compound transfer, the complete medium was removed, 30 μl assay buffer (DMEM high glucose, 1×MEM NEAA, 10 mM HEPES, 2 mM L-glutamine, 0.1% (w/v) BSA) was added and 10 μl of the compound predilutions were transferred to the cells. After treatment with compound for 1 h, the cells were lysed by the addition of 20 μl lysis buffer supplemented with 0.24% (w/v) BSA. Detection of p-AKT (Ser473) was performed with the SureFire p-Akt 1/2 (Ser473) Assay Kit according to the manufacturer's instructions using 5 ul of cell lysate in a total detection volume of 12 μl.
(§6) IC50 values of the percentage inhibition of each compound at 8 concentrations (usually 10, 3.0, 1.0, 0.3, 0.1, 0.030, 0.010 and 0.003 μM) n=2 were derived by fitting a sigmoidal dose-response curve to a plot of assay readout over inhibitor concentration as described. All fits were performed with the program XLfit4 (ID Business Solutions, Guildford, UK).

PI 3-kinase beta = PI 3-kinase beta (Homo sapiens (Human), UniProt P42338); assay: Cellular p-Akt (S473) SureFire assay, Rat-1_PI3Kbeta cells (Assay I); details: p-AKT (Ser473) in Rat-1 cells expressing myr-HA-hp110 beta, 1 h compound; read-out: Assay I PI3Kβ IC50
Sequence of PI 3-kinase beta (P42338 whole entry): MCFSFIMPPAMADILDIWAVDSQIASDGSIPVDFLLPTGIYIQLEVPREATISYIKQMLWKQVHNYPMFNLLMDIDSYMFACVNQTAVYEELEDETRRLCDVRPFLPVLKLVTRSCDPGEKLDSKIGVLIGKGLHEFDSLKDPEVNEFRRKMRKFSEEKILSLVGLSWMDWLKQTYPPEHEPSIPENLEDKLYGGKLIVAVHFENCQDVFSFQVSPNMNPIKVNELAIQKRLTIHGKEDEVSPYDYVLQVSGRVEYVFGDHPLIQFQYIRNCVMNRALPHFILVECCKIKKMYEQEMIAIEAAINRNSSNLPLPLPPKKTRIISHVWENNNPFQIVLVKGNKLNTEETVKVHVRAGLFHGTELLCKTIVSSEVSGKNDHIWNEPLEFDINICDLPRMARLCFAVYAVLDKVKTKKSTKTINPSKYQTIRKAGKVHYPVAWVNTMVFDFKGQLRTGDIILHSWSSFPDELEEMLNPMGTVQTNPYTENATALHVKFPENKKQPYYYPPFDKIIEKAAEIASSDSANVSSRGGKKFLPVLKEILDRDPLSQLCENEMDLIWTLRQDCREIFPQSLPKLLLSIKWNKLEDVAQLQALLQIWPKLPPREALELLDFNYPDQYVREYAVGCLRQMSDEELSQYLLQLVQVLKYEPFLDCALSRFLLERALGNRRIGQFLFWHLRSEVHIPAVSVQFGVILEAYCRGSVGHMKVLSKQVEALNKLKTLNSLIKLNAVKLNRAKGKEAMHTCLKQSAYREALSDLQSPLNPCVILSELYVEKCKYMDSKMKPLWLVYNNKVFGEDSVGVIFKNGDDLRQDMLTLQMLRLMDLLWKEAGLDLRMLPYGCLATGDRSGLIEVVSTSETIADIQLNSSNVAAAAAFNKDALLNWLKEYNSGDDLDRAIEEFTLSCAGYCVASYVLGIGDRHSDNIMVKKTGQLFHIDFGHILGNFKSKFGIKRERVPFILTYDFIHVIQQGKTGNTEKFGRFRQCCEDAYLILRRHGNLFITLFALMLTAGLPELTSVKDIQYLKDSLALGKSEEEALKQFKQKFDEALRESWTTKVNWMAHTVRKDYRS
Sequence of PI 3-kinase beta (Q63787 whole entry partner): as the sequence (Q63787 whole entry partner) above
From the text: as §1, §2, §3, §4, §5, §6

PI 3-kinase delta = PI 3-kinase delta (Homo sapiens (Human), UniProt O00329); assay: Cellular p-Akt (S473) SureFire assay, Rat-1_PI3Kdelta cells (Assay J); details: p-AKT (Ser473) in Rat-1 cells expressing myr-HA-hp110 delta, 1 h compound; read-out: Assay J PI3Kδ IC50
Sequence of PI 3-kinase delta (O00329 whole entry): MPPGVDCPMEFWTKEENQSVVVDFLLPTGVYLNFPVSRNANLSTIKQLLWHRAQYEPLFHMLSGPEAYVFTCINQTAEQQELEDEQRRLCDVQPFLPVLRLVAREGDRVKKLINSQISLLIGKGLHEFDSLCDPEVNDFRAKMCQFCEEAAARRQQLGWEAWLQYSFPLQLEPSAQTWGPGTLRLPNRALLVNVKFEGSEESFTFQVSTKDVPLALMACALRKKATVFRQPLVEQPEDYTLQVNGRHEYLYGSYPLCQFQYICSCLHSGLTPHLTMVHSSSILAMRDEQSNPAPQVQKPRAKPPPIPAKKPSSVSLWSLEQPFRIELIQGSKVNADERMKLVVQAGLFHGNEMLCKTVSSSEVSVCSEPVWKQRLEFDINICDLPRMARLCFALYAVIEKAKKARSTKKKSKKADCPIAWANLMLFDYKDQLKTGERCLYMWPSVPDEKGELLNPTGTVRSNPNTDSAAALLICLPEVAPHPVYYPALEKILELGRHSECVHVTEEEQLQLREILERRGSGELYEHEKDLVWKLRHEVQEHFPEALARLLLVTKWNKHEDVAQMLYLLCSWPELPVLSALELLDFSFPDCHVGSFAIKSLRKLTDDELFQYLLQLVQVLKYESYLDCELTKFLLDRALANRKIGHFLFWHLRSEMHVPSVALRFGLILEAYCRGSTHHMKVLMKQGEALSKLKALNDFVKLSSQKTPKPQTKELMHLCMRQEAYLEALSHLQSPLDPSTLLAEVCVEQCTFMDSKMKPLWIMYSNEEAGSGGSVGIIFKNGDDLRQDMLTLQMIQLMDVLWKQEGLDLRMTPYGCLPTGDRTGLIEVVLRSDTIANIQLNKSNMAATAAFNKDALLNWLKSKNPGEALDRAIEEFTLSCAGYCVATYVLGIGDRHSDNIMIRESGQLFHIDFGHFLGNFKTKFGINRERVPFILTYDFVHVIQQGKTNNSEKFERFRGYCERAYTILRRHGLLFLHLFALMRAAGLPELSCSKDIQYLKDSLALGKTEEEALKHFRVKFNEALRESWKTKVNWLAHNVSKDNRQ
Sequence of PI 3-kinase delta (Q63787 whole entry partner): as the sequence (Q63787 whole entry partner) above
From the text: as §1, §2, §3, §4, §5, §6

IC50 [1]	IC50 (PI 3-kinase alpha)	IC50 (PI 3-kinase beta)	IC50 (PI 3-kinase delta)	SMILES
212 nM				Cc1ccc(S(=O)(=O)NC[C@H]2C[C@@H](O)C2)cc1-c1cncc(-c2cn(C)nc2C)n1 [Example 7, Cis 3-[6-(1,3-Dimethyl-1H-pyrazol-4-yl)-pyrazin-2-yl]-N-(3-hydroxy-cyclobutylmethyl)-4-methyl-benzenesulfonamide]
847 nM				Cc1cc(-c2cncc(-c3cc(S(=O)(=O)NC[C@H]4C[C@@H](O)C4)ccc3C)n2)n(C)n1 [Example 13, Cis 3-[6-(2,5-Dimethyl-2H-pyrazol-3-yl)-pyrazin-2-yl]-N-(3-hydroxy-cyclobutylmethyl)-4-methyl-benzenesulfonamide]
830 nM	1140 nM	1110 nM	306 nM	Cc1ccc(S(=O)(=O)N[C@H]2CC[C@H](O)CC2)cc1-c1cncc(-c2csc(CN3CCOCC3)c2)n1 [Example 12, Trans N-(4-Hydroxy-cyclohexyl)-4-methyl-3-[6-(5-morpholin-4-ylmethyl-thiophen-3-yl)-pyrazin-2-yl]-benzenesulfonamide]
374 nM	709 nM	1050 nM	515 nM	Cc1ccc(S(=O)(=O)NC2CC3(CC(O)C3)C2)cc1-c1cncc(-c2cn(C)nc2C)n1 (stereo not shown) [Example 6, 3-[6-(1,3-Dimethyl-1H-pyrazol-4-yl)-pyrazin-2-yl]-N-(6-hydroxy-spiro[3.3]hept-2-yl)-4-methyl-benzenesulfonamide]
